From patent publication US5795885A, “Method of inhibiting profileration of cells by administering an aminosterol compound” (priority 1995, dated 1998)
Converted amounts (≈) assume the structure as drawn. Like-named read-outs stand apart in the source and are kept apart here.

Key:
S. aureus = assay: antibiotic activity (MIC); assay type: cell-based; details: Staphylococcus aureus
[1] = system: stage 59-60 Xenopus tadpoles; details: 10 μg/ml in water
[2] = assay type: physicochemical
From the text: Compound 1361 was isolated from shark liver preparations in two different ways: first, as a degradation product of compound 1360; and, subsequently,as a minor aminosterol component fractionating with slightly faster retention time than squalamine during preparative C18 RP-HPLC (component of Fraction VI). In early attempts to purify each aminosterol to homogeneity, pooled fractions from C18 RP-HPLC were subjected to silica gel flash chromatography with CH2 Cl2 :CH30 H:NH4 OH 6:3:1, and the aminosterols were assayed on TLC plates. The pools of free base steroids were then re-subjected to C18 RP-HPLC, using an analytical column.

[3] = system: PHA-stimulated human lymphocytes; assay: inhibition of mitogen (PHA)-stimulated growth of human T-cells; assay type: cell-based; details: Homo sapiens, Lymphocyte, read-out: inhibition of PHA-stimulated human lymphocytes (% control)
From the text: Results are tabulated below.

[4] = system: chick embryo vitelline capillaries; assay: chick embryo vitelline capillary regression assay; assay type: in vivo; set-up: key to vitelline capillary regression: +: Vascular reactivity; 0: No vascular reactivity; +/-: Equivocal reactivity
Method: Using the chick embryo vitelline capillaries assay, compounds were tested for their ability to induce capillary regression. Each compound was applied in 0.1 ml of 15% Ficol 400 and PBS onto the embryo, and vascular regression was assessed after 60 minutes.
The 3-day chick embryo consists of an embryonic disc from which numerous vessels emerge and return, forming a "figure 8"-shaped structure--the embryo in the center with vascular loops extending outward over both poles. […] Following a lag period of around 15 minutes, the constriction of continuity between capillary and secondary vessels, generally on the "venous" side, was observed. Continued pulsatile blood flow progressed, resulting in a "swelling" of the blind tube, followed by a pinching off of the remaining connection and formation of an enclosed vascular sac resembling a "blood island." This process progressed until only the largest vessels remained intact.

P. aerug = assay: antibiotic activity (MIC); assay type: cell-based
E. Coli = assay: antibiotic activity (MIC); assay type: cell-based; details: Escherichia coli, read-out: MIC, E. Coli
HM = HM MTT assay; assay type: cell-based; details: Table II; read-out: Minimum Effective Concentration, HM MTT assay

Which MIC (S. aureus) does the source give for `CC(C)CCC[C@@H](C)[C@H]1CC[C@H]2[C@@H]3CC[C@H]4C[C@H](NCCCN5CCCCN=C5N)CC[C@]4(C)[C@H]3CC[C@]12C` here?
The MIC was 2 µg/mL (≈ 3.7 µM).

Which results are given for `CC(COS(=O)(=O)O)C(=O)CC[C@@H](C)[C@H]1CC[C@H]2[C@@H]3[C@H](O)C[C@H]4C[C@@H](NCCCNCCCCN)CC[C@]4(C)[C@H]3CC[C@]12C` (single isomer, unassigned) [Compound 1360]?
pharmacological response in tadpole [1]: Swelling and lysis of certain erythrocytes occurred, resulting in accumulation of nuclei within certain small vessels of the tail. Subsequent tissue breakdown occurred in areas of tail surrounding these nuclear plugs.; pharmacological response in tadpole ([1]; listed as compound 1360): extensive vasocclusion occurred within 60 minutes throughout the tail; chemical stability [2]: undergoes a dehydration of the 27 hydroxyl, loss of sulfate, and generation of the corresponding 27-ene; inhibition at 1 µg/mL ([3]; 1 μg/ml): 5%; inhibition at 5 µg/mL ([3]; 5 μg/ml): 5%; inhibition at 10 µg/mL ([3]; 10 μg/ml): 5%; vitelline capillary regression ([4]; 1 μg applied, 60 minutes): 0; effect on blood color in chick embryo ([4]; within 20 minutes): the blood circulating through the embryonic vessels exhibited a brighter red color

Which MIC (P. aerug) does the source give for `COC(=O)CCC(C)[C@H]1CCC2C3C[C@@H](O)[C@H]4C[C@H](NCCN)CC[C@]4(C)C3CC[C@@]21C` (stereo partly drawn) here?
Its MIC is 128 µg/mL (≈ 285 µM).

What about the MIC (E. Coli) of the same compound?
The MIC was 32 to 44 µg/mL (≈ 71.3 to 98.1 µM).

With `COC(=O)CCC(C)[C@H]1CCC2C3CC[C@H]4C[C@H](NCCCNCCCCNCCCN)CC[C@]4(C)C3CC[C@@]21C` (stereo partly drawn) [drawing 108] as the compound, how does the minimal effective concentration (HM) read?
Its minimal effective concentration is 6.8 µg/mL.
